Experimental data published in patent US20120328525A1, “NANOPARTICLE COMPOSITIONS AND COMPONENTS THEREOF” (priority 2011, published 2012).

Test system: axillary sweating
Test: Placebo-controlled blinded clinical study, gravimetric sweat measurement (Examples 5-10)
Assay type: in vivo, human
Conditions: for percent of subjects with at least a 30% reduction in sweat production vs Baseline / average reduction in sweat production by gravimetric sweat measurement: two weeks after single topical treatment; for average reduction in sweat production by gravimetric sweat measurement: 0.3 mL/axilla; for greater reduction in sweat production than control (placebo) group / greater effectiveness in reducing sweat production than placebo (responder rate): two weeks after treatment; for greater reduction in sweat production than control (placebo) group: placebo 53 mg; for greater effectiveness in reducing sweat production than placebo (responder rate): placebo 29% responders
Source text: (§1) The purpose of the study was to determine if Emulsion H is biologically active in reducing sweating. […] Some subjects received treatment with the potentially biologically active formulation and some subjects received treatment with a placebo, i.e. water. Neither the subject nor the investigator knew which treatment the subject was receiving.
Two weeks after a single treatment, subjects were re-assessed by gravimetric sweat measurement to determine the degree of sweat reduction. A comparison of post-treatment sweat production between the treatment groups was made to determine the degree of sweat reduction by the potentially biologically active formulation.
The sweat production of the subject is measured gravimetrically by the following procedure: • The subject was placed in a room with relatively constant temperature and humidity for at least 30 min. • The subject was placed in a semi-reclining position with the axilla fully exposed and the arm resting comfortably above the head. • The subject's axilla was dried gently with a cotton gauze pad. • The investigator used a forceps to place one filter paper (90 mm diameter) on a balance sensitive to 0.1 mg and recorded its weight. • The investigator used a forceps to place the measured filter paper on the axilla, covered it with plastic and taped the edges of the bag against the subject's skin with hypoallergenic tape to form a seal around the plastic bag. • After 5 minutes, the investigator gently removed the tape and plastic from the subject's axilla and then, using forceps, immediately placed the filter paper onto the scale to record its weight. The scale was then dried and zero balanced. • This measurement was then repeated as described above with the other axilla.
If the subject was eligible for treatment on this basis, the subject was then treated. For treatment, one of the study preparations (0.3 mL/axilla) was applied topically with a gloved finger by the investigator to the subject's skin of the axilla. Emulsion H contained 19.2 mg Labrafac Lipophile WL 1349 and 28.8 mg Polysorbate 80, NF, in addition to 0.9% Sodium Chloride Irrigation, USP, and Gelatin Phosphate Buffer. The average diameter (e.g., particle size) of nanoparticles contained in the Emusion H empty nanoparticle composition was approximately 80.1 nm. The preparation was administered in small increments to avoid run-off. The liquid was rubbed-in until vanished.
The subject was scheduled for a follow-up office visit two weeks after the treatment. At the follow-up office visit, the subject was questioned as to their compliance with the instructions regarding which medications not to use between treatment and the two week follow-up office visit. If the subject was non-compliant, the subject was disqualified from the study. If the subject was compliant, the subject was re-assessed using the gravimetric sweat measurement procedure.
as §1, with “V” for “H”
If the subject was eligible for treatment on this basis, the subject was then treated. For treatment, one of the study preparations (0.3 mL/axilla) was applied topically with a gloved finger by the investigator to the subject's skin of the axilla. Emulsion V contained Emulsifying Wax, Gelatin Phosphate Buffer Solution, Isopropyl Myristate, Labrafac Lipophile, Methylparaben, Mineral Oil Heavy Viscosity Range, Polysorbate 80, Propylparaben, Purified Water, Sodium Chloride Injection, and White Petrolatum. All ingredients are either NF or USP grade. The average diameter (e.g., particle size) of nanoparticles contained in the Emusion V empty nanoparticle composition was approximately 77.1 nm. The preparation was administered in small increments to avoid run-off. […]

Q: With `CCCCCCCCCCCCCC(=O)OC(C)C` [Isopropyl Myristate] as the molecule, how does the “percent of subjects with at least a 30% reduction in sweat production vs Baseline” value read?
A: The value was 55%.

Q: And the “average reduction in sweat production by gravimetric sweat measurement” value (shortened to “average reduction in sweat production”)?
A: The value was 103 mg.

Q: What about the “greater reduction in sweat production than control (placebo) group” value (“greater reduction” for short) of the same molecule?
A: Its value is 195%.

Q: What about the “greater effectiveness in reducing sweat production than placebo (responder rate)” value of the same molecule?
A: The value was 191%.

Q: `CCCOC(=O)c1ccc(O)cc1` [Propylparaben] was tested. Which “percent of subjects with at least a 30% reduction in sweat production vs Baseline” value did it give?
A: Its value is 70%.

Q: And the “average reduction in sweat production” value?
A: The value was 177 mg.

Q: And the “greater reduction” value?
A: Its value is 337%.

Q: And the “greater effectiveness in reducing sweat production than placebo (responder rate)” value?
A: Its value is 245%.

Q: How did the “percent of subjects with at least a 30% reduction in sweat production vs Baseline” value turn out when Polysorbate 80 was run?
A: The value was 80%.

Q: And the “average reduction in sweat production” value?
A: The value was 159 mg.

Q: And the “greater reduction” value?
A: The value was 300%.

Q: And the “greater effectiveness in reducing sweat production than placebo (responder rate)” value?
A: Its value is 280%.
